Assay results reported in patent publication US8614227B2, “Salt and solvates of a tetrahydroisoquinoline derivative” (Spinifex Pharmaceuticals Pty Ltd, priority 2010, dated 2013).

How the values were obtained:
Assay type in all cases: physicochemical
[1] = Compound 2 solution stability, one week (HPLC % purity); conditions: for Δ% Purity at 5° C. / Δ% Purity at 25° C./60% RH: 1 week; for Initial % Purity: t=0
Experimental: The above analysis was taken as t=0 and the samples were then divided in two and one of each sample was stored at 5° C. for one week and the other of each sample was stored at 25° C./60% relative humidity (RH) for one week.
After one week, the samples were allowed to equilibrate to room temperature and if required (H2O and pH 7-9 samples stored at 5° C.) refiltered to remove precipitate.
The samples were reanalyzed by HPLC.

[2] = Bulk density, tap density, powder flow, particle size and milling feasibility of Compound 2; conditions: for Tap Density: Autotap 100 cycles
Experimental: Compound 2 particle size distribution was determined by sieve screen analysis. A sample of Compound 2 was passed through a series of sieves, which included a 53, 106, 250, 500, 710, and 1000 μm mesh screen. Each screen was weighed before and after the sieving occurred to determine the amount of compound at each particle size.
The powder flow was determined on a FlowDex apparatus.
Bulk density was determined by filling a tared 100 mL graduated cylinder with Compound 2. The volume and weight of Compound 2 added was recorded and used to calculate its bulk density. Tap density was then determined by taking the same graduated cylinder filled with Compound 2 and placing it on an Autotap set for 100 cycles. The new powder volume was recorded and used to calculate the tap density.
24.73 mg of Compound 2 was weighed directly into a tared 25 mL volumetric flask. The flask was diluted to volume with ACN and inverted to mix. A sample was taken to determine the % purity (% area) of the drug before milling took place. Milling was performed by taking 17.92 g of Compound 2 and passing this material it through a conical mill with an 1143 μm screen. 14.33 g of Compound 2 was recovered and re-analyzed for particle size distribution, bulk density, and tap density. 24.93 mg of milled Compound 2 was weighed directly into a tared 25 mL volumetric flask. The flask was diluted to volume with ACN and inverted to mix. This sample was taken to determine the % purity (% area) after Compound 2 had been milled.
After Compound 2 had been milled it was blended with 2.5% w/w of colloidal silicon dioxide, Cab-O-Sil®, on a T2 Turbula blender for 2 minutes. The blended powder was collected and its flow properties were analyzed on a FlowDex apparatus.

[3] = Compound 2 solubility in solvents and buffers (saturated, 24 h shaking, HPLC); conditions: 50 mM phosphate buffer, aqueous buffer, thermodynamic from solid; pH 3 buffer (phosphate, 50 mM)

COc1ccc2c(c1OCc1ccccc1)C[C@@H](C(=O)[O-])N(C(=O)C(c1ccccc1)c1ccccc1)C2.[Na+] [Compound 2, sodium salt of (S)-2-(diphenylacetyl)-1,2,3,4-tetrahydro-6-methoxy-5-(phenylmethoxy)-3-isoquinoline carboxylic acid]
t = 1 week % Purity at 5° C. ([1]; pH 6 buffer solution): 87.02% | t = 1 week % Purity at 25° C./60% RH ([1]; pH 6 buffer solution): 88.98% | Δ% Purity at 5° C. ([1]; pH 6 buffer solution): −1.35% | Δ% Purity at 25° C./60% RH ([1]; pH 6 buffer solution): +0.61% | Initial % Purity ([1]; pH 6 buffer solution): 88.37% | t = 1 week % Purity at 5° C. ([1]; pH 7 buffer solution): 74.27% | t = 1 week % Purity at 25° C./60% RH ([1]; pH 7 buffer solution): 76.52% | Δ% Purity at 5° C. ([1]; pH 7 buffer solution): −1.85% | Δ% Purity at 25° C./60% RH ([1]; pH 7 buffer solution): +0.40% | Initial % Purity ([1]; pH 7 buffer solution): 76.12% | t = 1 week % Purity at 5° C. ([1]; pH 8 buffer solution): 81.45% | t = 1 week % Purity at 25° C./60% RH ([1]; pH 8 buffer solution): 86.70% | Δ% Purity at 5° C. ([1]; pH 8 buffer solution): −4.09% | Δ% Purity at 25° C./60% RH ([1]; pH 8 buffer solution): +1.16% | Initial % Purity ([1]; pH 8 buffer solution): 85.54% | t = 1 week % Purity at 5° C. ([1]; pH 9 buffer solution): 89.17% | t = 1 week % Purity at 25° C./60% RH ([1]; pH 9 buffer solution): 91.60% | Δ% Purity at 5° C. ([1]; pH 9 buffer solution): −2.07% | Δ% Purity at 25° C./60% RH ([1]; pH 9 buffer solution): +0.36% | Initial % Purity ([1]; pH 9 buffer solution): 91.24% | t = 1 week % Purity at 5° C. ([1]; solution in ACN): 97.50% | t = 1 week % Purity at 25° C./60% RH ([1]; solution in ACN): 97.46% | Δ% Purity at 5° C. ([1]; solution in ACN): 0.00% | Δ% Purity at 25° C./60% RH ([1]; solution in ACN): −0.04% | Initial % Purity ([1]; solution in ACN): 97.50% | t = 1 week % Purity at 5° C. ([1]; solution in H2O): 94.66% | t = 1 week % Purity at 25° C./60% RH ([1]; solution in H2O): 95.67% | Δ% Purity at 5° C. ([1]; solution in H2O): −0.92% | Δ% Purity at 25° C./60% RH ([1]; solution in H2O): +0.09% | Initial % Purity ([1]; solution in H2O): 95.58% | t = 1 week % Purity at 5° C. ([1]; solution in IPA): 89.59% | t = 1 week % Purity at 25° C./60% RH ([1]; solution in IPA): 90.51% | Δ% Purity at 5° C. ([1]; solution in IPA): +0.31% | Δ% Purity at 25° C./60% RH ([1]; solution in IPA): +1.23% | Initial % Purity ([1]; solution in IPA): 89.28% | t = 1 week % Purity at 5° C. ([1]; solution in MeOH): 97.52% | t = 1 week % Purity at 25° C./60% RH ([1]; solution in MeOH): 97.39% | Δ% Purity at 5° C. ([1]; solution in MeOH): +0.13% | Δ% Purity at 25° C./60% RH ([1]; solution in MeOH): 0.00% | Initial % Purity ([1]; solution in MeOH): 97.39% | average particle size ([2]; after milling): ~560 μm | % Purity with milling ([2]; before vs after milling): % Purity of Compound 2 sample did not change with milling. | powder flow (FlowDex) ([2]; bulk unmilled): unable to pass through the largest available, 34 mm, orifice | average particle size ([2]; bulk, before milling): ~775 μm | Bulk Density ([2]; milled (conical mill, 1143 μm screen)): 0.073 g/mL | Tap Density ([2]; milled): 0.098 g/mL | powder flow (FlowDex) ([2]; milled, blended with 2.5% w/w colloidal silicon dioxide): passed through a 34 mm orifice but failed to pass through a 32 mm orifice | Bulk Density ([2]; unmilled): 0.089 g/mL | Tap Density ([2]; unmilled): 0.114 g/mL | solubility at 24 h [3]: < 1 µg/mL
